Source: patent US4117133A, “Vasodilating cuanzine hydrazides” (Inverni Della Beffa S.p.A., priority 1975, dated 1978)
Values after ≈ are worked out from the molar mass of the structure shown. Structures can show the parent of a compound that is named as a salt.

Tests used:
[1] = test system: isolated ileum of guinea pigs; assay: Spasmolytic activity on the isolated ileum of guinea pigs (acetylcholine-induced spasm); conditions: limits in parentheses, contact time spasmogenic 1 min, spasmolytic 3 min, interval between administrations 5 min; for IC50: Cavia porcellus, 0.05 h, read-out: ED50 and base limits on spasm induced by 100 mg/ml of acetylcholine
Method: (1) (1) induced by 100 mg/ml of acetylcholine
(1) The time of contact of the spasmogenic and spasmolytic substances was
1 and 3 minutes, respectively.
The interval between the administrations was 5 minutes.

[2] = test system: anaesthetized mongrel dogs; assay: Haemodynamic activities in anaesthetized dogs; type: in vivo; design: key to Flow coronary / Flow femoral / Contractive power of heart: +++: intense increase; ++: moderate increase; +: faint increase; =: no change; conditions: intravenous; for Arterial pressure Average variation carotid / Arterial pressure Average variation femoral / Contractive power of heart / Flow coronary / Flow femoral: one twentieth of the LD50: cuanzine HCl 8, hydrazide bitartrate 10, 21-epicuanzine HCl 5, apocuanzine HCl 2.5, dimethylaminoethyl ester 10 mg/kg
Method: The products under investigation were administered intravenously to anaesthetized mongrel dogs in doses which were in proportion to the lethal dose (one twentieth of the LD50).
The average of the carotid and femoral arterial pressures, the […] coronary and femoral flow rates and the contractive power of the heart were measured and the results are shown in Table I.

Molecule	ED50 and base limits on spasm induced by 100 mg/ml of acetylcholine [1]	IC50 [1] [µg/mL]	Arterial pressure Average variation carotid [2] [mm Hg]	Arterial pressure Average variation femoral [2] [mm Hg]	Contractive power of heart [2]	Flow coronary [2]	Flow femoral [2]	haemodynamic activity compared with cuanzine (in words) ([2]; anaesthetized dogs, one twentieth of the LD50)
21-epicuanzine	37 (68.8 - 19.9) γ/ml	–	–	–	–	–	–	–
COC(=O)C1=C[C@]23CCO[C@H]2CCN2CCc4c(n1c1c(OC)cccc41)[C@@H]23 [Apocuanzine]	–	26.5 (≈ 69.7 µM)	–	–	–	–	–	–
COc1cccc2c3c([nH]c12)[C@H]1N(CC3)CC[C@@H]2OCC[C@@]21CC(=NN)C(=O)NN [Cuanzine hydrazide bitartrate]	–	74	-30	-30	+	+++	++	–
COC(=O)C1=C[C@]23CCO[C@H]2CCN2CCc4c(n1c1c(OC)cccc41)[C@@H]23 [Apocuanzine hydrochloride, Apocuanzine]	–	–	-15	-15	+	+++	+	–
COc1cccc2c3c4n(c12)[C@](O)(C(=O)OCCN(C)C)C[C@]12CCO[C@H]1CCN(CC3)[C@H]42 [N,N-dimethylaminoethyl nor-cuanzinate]	–	–	-10	-10	=	++	+	as active as cuanzine
COC(=O)[C@]1(O)C[C@]23CCO[C@H]2CCN2CCc4c(n1c1c(OC)cccc41)[C@@H]23 [Cuanzine hydrochloride, reference compound]	–	120	-10	-10	=	++	+	–
COC(=O)[C@]1(O)C[C@]23CCO[C@H]2CCN2CCc4c(n1c1c(OC)cccc41)[C@H]23 [21-epicuanzine hydrochloride, 21-Epicuanzine (A=β-H,B = CO2 Me, C=OH,D=H) hydrochloride]	–	–	-20	-20	=	++	+	–
